Reference: patent US7323541B2, “Polypeptide DNA thereof and use of the same” (Takeda Pharmaceutical Company Limited, priority 2001, dated 2008)
Changes are numbered by the printed parent chain. Where no end group is shown, it is not given here.

Tests used:
Assay type in all cases: cell-based
[1] = target: T1, TGR23-1 expressing CHO cells (Homo sapiens, UniProt Q6W5P4); assay: Intracellular Ca ion concentration increasing activity using FLIPR; details: variety of concentrations
T1 construct: the clones having the cDNA of TGR23-1, which is contained in pTB2173, were selected; expressed in transfected cells; host or cells: hamster CHO/dhfr- cells, vector pAKKO-111H (pAKKO-TGR23-1), clones No. 49 and No. 52
T1 sequence (Q6W5P4 1-371): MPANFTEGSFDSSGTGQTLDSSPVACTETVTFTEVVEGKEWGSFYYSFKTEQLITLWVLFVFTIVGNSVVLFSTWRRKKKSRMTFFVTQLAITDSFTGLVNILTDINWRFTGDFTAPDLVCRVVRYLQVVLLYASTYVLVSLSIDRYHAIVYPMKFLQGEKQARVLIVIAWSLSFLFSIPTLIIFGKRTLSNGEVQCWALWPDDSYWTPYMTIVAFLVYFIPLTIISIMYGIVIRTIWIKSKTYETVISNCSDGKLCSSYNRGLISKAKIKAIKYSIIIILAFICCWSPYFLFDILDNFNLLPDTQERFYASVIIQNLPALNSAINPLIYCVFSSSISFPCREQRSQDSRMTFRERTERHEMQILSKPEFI
Protocol: (§1) An enhancing activity of intracellular Ca^2+ release was assayed using FLIPR (Molecular Devices, Inc.). The CHO/TGR23-2 cells prepared in Example 1 and selected in Example 2 were plated on 96-well plate at 3×10^4 cells/well and cultured for 24 hours. A loading buffer was prepared by adding 1 vial of Fluo 3-AM to 10 ml of Hanks' solution (pH7.4) containing 2.5 mM Probenecid and 20 mM HEPES (hereafter, Hanks' solution (pH7.4) containing 2.5 mM Probenecid and 20 mM HEPES may be referred to as a washing buffer). The culture medium was discarded from the culture plate and 100 μl/well of the loading buffer were added to the cells. Then, the cells were incubated for 60 minutes in the incubator. After the loading buffer was removed from the culture plate and the cells were washed with the washing buffer, the plate was put in place of FLIPR. A sample was prepared by adding a sample buffer, which 2 mg/ml BSA and 1 mg/ml CHAPS were added to the washing buffer, to lyophilized product, stirring and treating by ultrasonication for 30 minutes, and transferred to 96-well sample plate. This sample plate was also put in place for assay. The enhancing activity of intracellular Ca^2+ release was measured as an increase of fluorescent intensity, which is raised by addition of the sample. Human TGR23-2 ligand (1-20) obtained in Example 17 was administered to TGR23-1 expressing CHO cells and TGR23-2 expressing CHO cells at a variety of concentrations according to the method described in Example 5, and the increasing activity of intracellular Ca ion concentration was determined using FLIPR. […] Rat TGR23-2 ligand (1-18) prepared by the method described in Example 19 and mouse TGR23-2 ligand (1-20) prepared by the method described in Example 20 were administered to TGR23-1 expressing CHO cells and TGR23-2 expressing CHO cells at a variety of concentrations according to the method described in Example 5, and the increasing activity of intracellular Ca ion concentration was determined using FLIPR.

[2] = target: T2, TGR23-2 expressing CHO cells (Homo sapiens, UniProt Q6W5P4, N107I/Q344R); assay: as above; details: variety of concentrations
T2 construct: the clones having the cDNA of TGR23-2, which is contained in pTB2174, were selected; expressed in transfected cells; host or cells: hamster CHO/dhfr- cells, vector pAKKO-111H (pAKKO-TGR23-2)
T2 sequence (Q6W5P4 1-371 N107I/Q344R): T1 sequence (Q6W5P4 1-371) with N107I, Q344R
Protocol: as §1

[3] = target: T2, TGR23-2 expressing CHO cells; assay: Enhancing activity of arachidonic acid metabolite release
Protocol: The CHO/TGR23-2 cells prepared in Example 1 and selected in Example 2 were plated on 24-well plate at 5×10^4 cells/well and cultured for 24 hours. After removing the medium, αMEM medium (pH7.4) supplemented with 0.5 μCi/ml [^3H] arachidonic acid, 10% dialyzed FBS, 20 mM HEPES and 0.5% BSA was added to the cells at 500 μl/well. Subsequently, the cells were incubated for 16 hours in the incubator. After the culture medium containing [^3H] arachidonic acid was discarded, 500 μl/well of αMEM medium (pH7.4) supplemented with 20 mM HEPES and 0.5% BSA were added, and the cells were incubated for 4 hours in the incubator. […] Three milliliters of liquid scintilator were added to the supernatant described above to measure the radioactivity. Based on this measured value, a calculation was made using the following formula, and the promoting activity of arachidonic acid metabolite release was represented by % of control. The activity of the sample-adding group was calculated using a control value configured in each plate. % of control=[…]
X: The radioactivity in the sample-adding group
C: The means of the radioactivity in 4 wells of control (no sample) […]

Sequence: SFRNGVGSGVKKTSFRRA [rat TGR23-2 ligand (1-18), Ser-Phe-Arg-Asn-Gly-Val-Gly-Ser-Gly-Val-Lys-Lys-Thr-Ser-Phe-Arg-Arg-Ala]
- increase of intracellular Ca ion concentration [1]: clearly enhance an increase of intracellular Ca ion concentration
- increase of intracellular Ca ion concentration [2]: clearly enhance an increase of intracellular Ca ion concentration
- enhancing activity of arachidonic acid metabolite release [3]: enhance the arachidonic acid metabolite release

Sequence: SFRNGVGTGMKKTSFQRAKS [human TGR23-2 ligand (1-20)]
- increase of intracellular Ca ion concentration [1]: enhances an increase of intracellular Ca ion concentration
- increase of intracellular Ca ion concentration [2]: enhances an increase of intracellular Ca ion concentration
- enhancing activity of arachidonic acid metabolite release [3]: enhance the arachidonic acid metabolite release
